Data: PMC13266984 (Journal of medicinal chemistry, 2026)

Assays:
OE19 (3A1) = target: T1, OE19 (3A1) (Homo sapiens, UniProt P30838); assay: Cellular ALDEFLUOR assay in OE19 cells (preferential ALDH3A1 expression)
T1 sequence (P30838 1-453): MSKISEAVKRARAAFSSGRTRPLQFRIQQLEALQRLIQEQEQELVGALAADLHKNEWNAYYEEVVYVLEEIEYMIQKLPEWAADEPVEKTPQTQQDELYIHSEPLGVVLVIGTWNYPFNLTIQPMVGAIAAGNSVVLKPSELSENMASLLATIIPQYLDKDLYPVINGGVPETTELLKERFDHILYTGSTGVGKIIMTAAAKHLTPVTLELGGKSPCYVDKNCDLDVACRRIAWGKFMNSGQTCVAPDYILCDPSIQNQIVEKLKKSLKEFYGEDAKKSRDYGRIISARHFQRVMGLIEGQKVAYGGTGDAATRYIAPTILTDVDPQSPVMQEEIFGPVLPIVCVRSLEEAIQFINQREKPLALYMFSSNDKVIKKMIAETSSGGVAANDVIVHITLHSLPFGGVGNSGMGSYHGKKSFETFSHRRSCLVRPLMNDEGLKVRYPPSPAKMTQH

Human ALDH3A1 = target: T2, Human ALDH3A1 (Homo sapiens, UniProt P30838); assay: ALDH3A1 biochemical assay (benzaldehyde/NADP+, diaphorase-resazurin readout, 1,536-well)
T2 sequence (P30838 1-453): T1 sequence (P30838 1-453)

[1] = Table S4, biochemical curve class

| AC50 (OE19 (3A1)) [µM] | Cell_Efficacy (OE19 (3A1); Table S4, OE19 cells) | Cell_CC-v2 (OE19 (3A1); Table S4, cellular curve class) | AC50 (Human ALDH3A1) [µM] | Efficacy (Human ALDH3A1; Table S4, biochemical) | CC-v2 (Human ALDH3A1; [1]) | Cell_Efficacy (OE19 (3A1); Table S5, OE19 cells) | Cell_CC-v2 (OE19 (3A1); Table S5, cellular curve class) | Efficacy (Human ALDH3A1; Table S5, biochemical) | CC-v2 (Human ALDH3A1; Table S5, biochemical curve class) | Structure (SMILES) |
| --- | --- | --- | --- | --- | --- | --- | --- | --- | --- | --- |
| 3.13 | -86.59 | -1.1 | 0.91 | -85.15 | -1.1 |  |  |  |  | CCc1ccc(N2CCN(c3nc(C(=O)NCc4cccc(C)c4)cs3)CC2)cc1 [NCGC01211128-01] |
| 7.85 | -88.54 | -1.1 | 1.45 | -88.86 | -1.1 |  |  |  |  | Cc1cccc(CNC(=O)c2csc(N3CCN(c4ccccc4C)CC3)n2)c1 [NCGC01211138-01] |
| 0.7 | -91.24 | -1.1 | 0.81 | -72.77 | -1.2 |  |  |  |  | Cc1cccc(CNC(=O)c2csc(N3CCN(c4ccc(Br)cc4)CC3)n2)c1 [NCGC01211165-01] |
| 1.4 | -87.33 | -1.1 | 3.24 | -45.43 | -1.2 |  |  |  |  | Cc1cccc(CNC(=O)c2csc(N3CCN(c4ccc(OCCF)cc4)CC3)n2)c1 [NCGC01211173-01] |
| 3.51 | -84.69 | -1.1 | 1.45 | -61.92 | -1.2 |  |  |  |  | Cc1cccc(CNC(=O)c2csc(N3CCN(c4ccc(C#N)cc4)CC3)n2)c1 [NCGC01211190-01] |
| 0.88 | -43.91 | -1.2 | 40.8 | -38.00 | -2.2 |  |  |  |  | Cc1cccc(CNC(=O)c2csc(N3CCN(c4ccc(C(N)=O)cc4)CC3)n2)c1 [NCGC01211194-01] |
| 2.21 | -85.13 | -1.3 | 1.02 | -92.09 | -1.1 |  |  |  |  | Cc1cccc(CNC(=O)c2csc(N3CCN(c4ccc(C)c(C)c4)CC3)n2)c1 [NCGC01211295-01] |
| 3.93 | -82.59 | -1.1 | 0.65 | -96.17 | -1.1 |  |  |  |  | Cc1cccc(CNC(=O)c2csc(N3CCN(c4ccc(OC(F)(F)F)cc4)CC3)n2)c1 [NCGC01211384-01] |
| 15.7 | -88.85 | -2.3 | 1.15 | -71.12 | -1.2 |  |  |  |  | COc1ccc(N2CCN(c3nc(C(=O)NCc4cccc(C)c4)cs3)CC2)cc1O [NCGC01211394-01] |
| 2.48 | -99.68 | -1.1 | 0.58 | -91.75 | -1.1 |  |  |  |  | CCc1ccc(N2CCN(c3nc(C(=O)NCc4cccc(C)c4)cs3)CC2)cc1Cl [NCGC01211398-01] |
| 5.56 | -101.59 | -1.3 | 1.15 | -77.88 | -1.2 |  |  |  |  | Cc1cccc(CNC(=O)c2csc(N3CCN(c4cccc(C)c4)CC3)n2)c1 [NCGC01211399-01] |
| 3.93 | -80.26 | -1.1 | 3.24 | -99.09 | -1.1 |  |  |  |  | CCOC(=O)Cc1ccc(N2CCN(c3nc(C(=O)NCc4cccc(C)c4)cs3)CC2)cc1 [NCGC01212809-01] |
| 0.99 | -85.92 | -1.1 | 1.02 | -96.39 | -1.1 |  |  |  |  | Cc1cccc(CNC(=O)c2csc(N3CCN(c4cccc(F)c4)CC3)n2)c1 [NCGC01219288-01] |
| 0.88 | -90.33 | -1.3 | 1.15 | -94.91 | -1.1 |  |  |  |  | Cc1cccc(CNC(=O)c2csc(N3CCN(c4ccc(F)cc4)CC3)n2)c1 [NCGC01219292-01] |

The next lines start with the molecule.

| Structure (SMILES) | AC50 (OE19 (3A1)) [µM] | Cell_Efficacy (OE19 (3A1); Table S4, OE19 cells) | Cell_CC-v2 (OE19 (3A1); Table S4, cellular curve class) | AC50 (Human ALDH3A1) [µM] | Efficacy (Human ALDH3A1; Table S4, biochemical) | CC-v2 (Human ALDH3A1; [1]) | Cell_Efficacy (OE19 (3A1); Table S5, OE19 cells) | Cell_CC-v2 (OE19 (3A1); Table S5, cellular curve class) | Efficacy (Human ALDH3A1; Table S5, biochemical) | CC-v2 (Human ALDH3A1; Table S5, biochemical curve class) |
| --- | --- | --- | --- | --- | --- | --- | --- | --- | --- | --- |
| Cc1cccc(CNC(=O)c2csc(N3CCN(c4c(Cl)cccc4Cl)CC3)n2)c1 [NCGC01211131-01] | 3.13 | -61.19 | -1.4 | 0.51 | -89.06 | -1.1 |  |  |  |  |
| Cc1cccc(CNC(=O)c2csc(N3CCN(c4cc(F)cc(F)c4)CC3)n2)c1 [NCGC01211133-01] | 1.57 | -95.95 | -1.1 | 0.65 | -87.41 | -1.1 |  |  |  |  |
| Cc1cccc(CNC(=O)c2csc(N3CCN(c4ccc([S+](=O)([O-])F)cc4)CC3)n2)c1 [NCGC01211171-01] | 1.97 | -83.98 | -1.1 | 1.15 | -53.27 | -1.2 |  |  |  |  |
| COc1ccc(N2CCN(c3nc(C(=O)NCc4cccc(C)c4)cs3)CC2)c(OC)c1 [NCGC01211174-01] | 8.81 | -87.39 | -1.1 | 1.15 | -66.83 | -1.2 |  |  |  |  |
| Cc1cccc(CNC(=O)c2csc(N3CCN(c4cccc(Sc5ccc(C)cc5C)c4)CC3)n2)c1 [NCGC01211184-01] | 0.31 | -95.63 | -1.1 |  | -26.97 | 4 |  |  |  |  |
| Cc1cccc(CNC(=O)c2csc(N3CCN(c4ccc(N5CCOCC5)cc4)CC3)n2)c1 [NCGC01211186-01] | 3.13 | -98.82 | -1.1 | 4.08 | -37.13 | -1.2 |  |  |  |  |
| Cc1cccc(CNC(=O)c2csc(N3CCN(Cc4cccc(C)c4)CC3)n2)c1 [NCGC01211187-01] | 4.42 | -121.01 | -2.1 | 0.91 | -93.83 | -1.1 |  |  |  |  |
| COc1ccc(F)c(N2CCN(c3nc(C(=O)NCc4cccc(C)c4)cs3)CC2)c1 [NCGC01211189-01] | 7.85 | -96.01 | -1.1 | 0.91 | -85.97 | -1.1 |  |  |  |  |
| Cc1cccc(CNC(=O)c2csc(N3CCN(c4cccc(OCc5ccccc5C)c4)CC3)n2)c1 [NCGC01211373-01] | 1.11 | -85.56 | -1.1 | 0.36 | -60.22 | -1.2 |  |  |  |  |
| COc1ccc(Cl)c(N2CCN(c3nc(C(=O)NCc4cccc(C)c4)cs3)CC2)c1 [NCGC01211381-01] | 31.3 | -102.69 | -2.3 | 0.58 | -89.43 | -1.1 |  |  |  |  |
| Cc1cccc(CNC(=O)c2csc(N3CCN(c4c(F)cccc4F)CC3)n2)c1 [NCGC01211383-01] | 15.7 | -112.70 | -2.1 | 0.91 | -88.99 | -1.1 |  |  |  |  |
| COc1cc(N2CCN(c3nc(C(=O)NCc4cccc(C)c4)cs3)CC2)cc(OC)c1OC [NCGC01211386-01] | 9.88 | -70.97 | -1.2 | 3.64 | -76.22 | -1.2 |  |  |  |  |
| COc1cc(N2CCN(c3nc(C(=O)NCc4cccc(C)c4)cs3)CC2)ccc1F [NCGC01211397-01] | 2.79 | -82.14 | -1.1 | 2.89 | -71.38 | -1.2 |  |  |  |  |
| Cc1cccc(CNC(=O)c2csc(N3CCN(c4cc(Cl)c(Cl)c(Cl)c4)CC3)n2)c1 [NCGC01211545-01] | 0.39 | -73.43 | -1.2 | 0.58 | -72.19 | -1.2 |  |  |  |  |
| COc1ccc(N2CCN(c3nc(C(=O)NCc4cccc(C(F)(F)F)c4)cs3)CC2)cc1 [NCGC01211588-01] | 1.97 | -97.51 | -1.1 | 1.29 | -45.52 | -1.2 |  |  |  |  |
| COc1ccc(N2CCN(c3nc(C(=O)NCc4cccc(C)c4)cs3)CC2)cc1OC [NCGC01211669-01] | 8.81 | -91.42 | -1.1 | 6.47 | -51.05 | -1.2 |  |  |  |  |
| Cc1cccc(CNC(=O)c2csc(N3CCN(c4cncc(Br)c4)CC3)n2)c1 [NCGC01212814-01] |  | 0.00 | 4 | 1.29 | -92.59 | -1.1 |  |  |  |  |
| Cc1cccc(CNC(=O)c2csc(N3CCN(c4cccc(OC(F)(F)F)c4)CC3)n2)c1 [NCGC01219289-01] | 0.99 | -93.51 | -1.1 | 0.73 | -97.63 | -1.1 |  |  |  |  |
| O=C(Nc1ccncc1)c1ccc(CNC(=O)c2csc(N3CCN(c4cccc(C(F)(F)F)c4)CC3)n2)cc1 [NCGC01396478-01] | 6.31 |  |  |  |  |  | -114.29 | -2.1 | -22.34 | 4 |
